Data as given in patent US11319298B2 (Merck Sharp & Dohme Corp., priority 2016, dated 2022).

The compounds below were run against T1, human M4 muscarinic acetylcholine receptor (Homo sapiens, UniProt P08173) (assay: human FLIPR-based M4 PAM assay, CHO-K1 cells stably transfected with human M4 receptor and chimeric G-protein Gαqi5). Settings: inflection point (IP) of dose response curve; acetylcholine added at 20% of maximum response; CHO-K1 human M4/Gαqi5, FLIPR Tetra.
T1 construct: expressed in transfected cells; host or cells: CHO-K1
T1 sequence (P08173 1-479): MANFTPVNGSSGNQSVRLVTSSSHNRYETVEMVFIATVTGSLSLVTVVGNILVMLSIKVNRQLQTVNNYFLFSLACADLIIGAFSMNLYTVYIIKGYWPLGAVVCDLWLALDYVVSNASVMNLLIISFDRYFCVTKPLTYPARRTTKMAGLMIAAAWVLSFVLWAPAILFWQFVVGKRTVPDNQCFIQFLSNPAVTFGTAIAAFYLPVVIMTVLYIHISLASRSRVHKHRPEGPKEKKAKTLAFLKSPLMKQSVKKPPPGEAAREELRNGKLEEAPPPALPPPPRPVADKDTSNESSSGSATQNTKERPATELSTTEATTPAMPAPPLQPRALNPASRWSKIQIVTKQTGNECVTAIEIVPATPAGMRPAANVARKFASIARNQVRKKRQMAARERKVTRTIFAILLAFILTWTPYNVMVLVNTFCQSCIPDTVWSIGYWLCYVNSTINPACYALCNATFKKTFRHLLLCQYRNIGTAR
Format: cell-based
Experimental: In a typical experiment the M4 muscarinic acetylcholine receptor modulating activity of the compounds of the present invention was determined in accordance with the following experimental method. CHO-K1 cells stably transfected with human M4 receptor and chimeric G-protein Gαqi5 (Coward P, et al., Analytical Biochemistry, 270:242-248 (1999)) are thawed from liquid N2 storage, resuspended in growth medium, plated in black, clear bottom 384 well plates, and incubated 16-20 hours at 37° C., 5% CO2. On the day of assay, growth medium is removed, the cells are washed 2 times with wash buffer, and cells are incubated in dye loading buffer at 37° C., 5% CO2 for ˜1 hour. Following dye loading the cell plates are placed in a FLIPR Tetra instrument and while monitoring dye fluorescence (excitation […]), 10 uL of test substance at increasing concentrations is added, and fluorescence values are recorded for 4 min. Next, 10 uL of acetylcholine is added (final concentration calculated so as to achieve 20% of the maximum acetycholine response), and the fluorescence reading is continued for 3.5 min. In some cases, a third addition of acetylcholine (final concentration calculated to achieve 70% of the maximal acetylcholine response) is performed. The resulting dose response curves are fit to a 4 parameter logistic equation and the final result is determined as the inflection point (IP) of the curve
CHO-K1 cells stably transfected with human M4 receptor and chimeric G-protein Gαqi5 are thawed from liquid N2 storage, resuspended in growth medium, plated in black, clear bottom 384 well plates, and incubated 16-20 hours at 37° C., 5% CO2.
On the day of assay, growth medium is removed, the cells are washed 2 times with wash buffer, and cells are incubated in dye loading buffer at 37° C., 5% CO2 for ˜1 h. Following dye loading the cell plates are placed in a FLIPR Tetra instrument and while monitoring dye fluorescence ([…]), 10 uL of test substance at increasing concentrations is added, and fluorescence values are recorded for 4 min. Next, 10 uL of acetylcholine is added (final concentration calculated so as to achieve 20% of the maximum acetycholine response), and the fluorescence reading is continued for 3.5 min. In some cases, a third addition of acetylcholine (final concentration calculated to achieve 70% of the maximal acetylcholine response) is performed.

Row | SMILES | EC50
1 | Cc1c(-c2ccc3c(=O)nc[nH]c3c2)ncnc1N1CCC(Oc2cccc(C#N)c2)CC1 [Example 253, 3-((1-(5-methyl-6-(4-oxo-1,4-dihydroquinazolin-7-yl)pyrimidin-4-yl)piperidin-4-yl)oxy)benzonitrile] | 1.74 µM
2 | COc1ccc(OC2CCN(c3nc(C(=O)NC(C)(C)c4ccncc4)nc(Cl)c3C)CC2)cn1 [Example 220, 4-chloro-6-(4-((6-methoxypyridin-3-yl)oxy)piperidin-1-yl)-5-methyl-N-(2-(pyridin-4-yl)propan-2-yl)pyrimidine-2-carboxamide] | 1.43 µM
3 | Cc1cc(C(=O)NCc2ccncc2Cl)nnc1N1CCC(Oc2cccc(C#N)c2)CC1 [Example 151, N-[(3-chloropyridin-4-yl)methyl]-6-[4-(3-cyanophenoxy)piperidin-1-yl]-5-methylpyridazine-3-carboxamide] | 0.241 µM
4 | Cc1ncc(C)c(N2CC[C@@H](Oc3cccc(C#N)c3)[C@H](F)C2)n1 [Example 71, 3-(((3R,4R)-1-(2,5-dimethylpyrimidin-4-yl)-3-fluoropiperidin-4-yl)oxy)benzonitrile] | 0.135 µM
5 | COc1ccc(O[C@@H]2CCN(c3nc(C)ncc3C)C[C@@H]2F)cn1 [Example 84, 4-((3S,4R)-3-fluoro-4-((6-methoxypyridin-3-yl)oxy)piperidin-1-yl)-2,5-dimethylpyrimidine] | 0.574 µM
6 | Cc1c(Cl)ncnc1N1CCC(Oc2cccnc2)CC1 [Example 14, 4-chloro-5-methyl-6-(4-(pyridin-3-yloxy)piperidin-1-yl)pyrimidine] | 0.609 µM
7 | Cc1ncc(C)c(N2CCC(Oc3ccc4c(c3)C(=O)NC4)CC2)n1 [Example 100, 6-((1-(2,5-dimethylpyrimidin-4-yl)piperidin-4-yl)oxy)isoindolin-1-one] | 0.674 µM
8 | COc1ccc(OC2CCN(c3nnc(C(=O)NC4CCCc5ccccc54)cc3C)CC2)cn1 (stereo not shown) [Example 200, 6-{4-[(6-methoxypyridin-3-yl)oxy]piperidin-1-yl}-5-methyl-N-(1,2,3,4-tetrahydronaphthalen-1-yl)pyridazine-3-carboxamide] | 0.218 µM
9 | COc1ccc(OC2CCN(c3nnc(C(=O)Nc4cccnc4)cc3C)CC2)cn1 [Example 137, 6-{4-[(6-methoxypyridin-3-yl)oxy]piperidin-1-yl}-5-methyl-N-pyridin-3-ylpyridazine-3-carboxamide] | 0.175 µM
10 | Cc1cc(C(=O)N[C@H]2CCc3ncccc3C2)nnc1N1CCC(Oc2cccc(C#N)c2)CC1 [Example 130A, (S)-6-[4-(3-cyanophenoxy)piperidin-1-yl]-5-methyl-N-(5,6,7,8-tetrahydroquinolin-6-yl)pyridazine-3-carboxamide] | 0.125 µM
11 | COc1ccc(OC2CCN(c3ncnc(C)c3C)CC2)cn1 [Example 242, 4-(4-((6-methoxypyridin-3-yl)oxy)piperidin-1-yl)-5,6-dimethylpyrimidine] | 0.143 µM
12 | COc1ccc(OC2CCN(c3nc(C(=O)NC4CCc5ccncc5C4)nc(Cl)c3C)CC2)cn1 (stereo not shown) [Example 216, 4-chloro-6-(4-((6-methoxypyridin-3-yl)oxy)piperidin-1-yl)-5-methyl-N-(5,6,7,8-tetrahydroisoquinolin-7-yl)pyrimidine-2-carboxamide] | 0.997 µM
13 | Cc1c(Cl)nc(CO)nc1N1CCC(Oc2ccc3c(c2)C(=O)NC3)CC1 [Example 98, 6-((1-(6-chloro-2-(hydroxymethyl)-5-methylpyrimidin-4-yl)piperidin-4-yl)oxy)isoindolin-1-one] | 0.184 µM
14 | COc1ccc(OC2CCN(c3ncc(C#N)c(Cl)c3C)CC2)cn1 [Example 34, 4-chloro-5-(4-((6-methoxypyridin-3-yl)oxy)piperidin-1-yl)-5-methylnicotinonitrile] | 0.217 µM
15 | Cc1ncc(C)c(N2CCC(Oc3ccc4c(c3)C(=O)OC4)CC2)n1 [Example 99, 6-((1-(2,5-Dimethylpyrimidin-4-yl)piperidin-4-yl)oxy)isobenzofuran-1(31-1)-one] | 0.319 µM
16 | COc1ccc(OC2CCN(c3ncnc(N4CC(F)(F)C4)c3C)CC2)cn1 [Example 236, 4-(3,3-difluoroazetidin-1-yl)-6-(4-((6-methoxypyridin-3-yl)oxy)piperidin-1-yl)-5-methylpyrimidine] | 0.228 µM
17 | CONC(=O)c1cc(C)c(N2CCC(Oc3cccc(C#N)c3)CC2)nn1 [Example 132, 6-[4-(3-cyanophenoxy)piperidin-1-yl]-N-methoxy-5-methypyridazine-3-carboxamide] | 0.139 µM
18 | Cc1cc(C(=O)N[C@H]2CCc3cccnc3C2)nnc1N1CCC(Oc2cccc(C#N)c2)CC1 [Example 164A, (S)-6-[4-(3-cyanophenoxy)piperidin-1-yl]-5-methyl-N-(5,6,7,8-tetrahydroquinolin-7-yl)pyridazine-3-carboxamide] | 0.434 µM
19 | COc1ccc(OC2CCN(c3nnc(C(=O)N[C@H]4CCc5ncccc5C4)cc3C)CC2)cn1 [Example 141B, (S)-6-(4-((6-methoxypyridin-3-yl)oxy)piperidin-1-yl)-5-methyl-N-(5,6,7,8-tetrahydroquinolin-6-yl)pyridazine-3-carboxamide] | 0.173 µM
20 | Cc1nc(Cl)c(C)c(N2CCC(Oc3cccnc3)CC2)n1 [Example 12, 4-chloro-2,5-dimethyl-6-(4-(pyridin-3-yloxy)piperidin-1-yl)pyrimidine] | 0.292 µM

These reach a lower EC50. Values come first.

Row | EC50 | SMILES
21 | 0.114 µM | COc1ccc(OC2CCN(c3nnc(C(N)=O)cc3C)CC2)cn1 [Example 127, 6-{4-[(6-methoxypyridin-3-yl)oxy]piperidin-1-yl}-5-methylpyridazine-3-carboxamide]
22 | 0.085 µM | Cc1c(Cl)nc(CO)nc1N1CCC(Oc2ccc3c(c2)C(=O)CC3)CC1 [Example 26, 6-((1-(6-chloro-2-(hdyroxymethyl)-5-methylpyrimidin-4-yl)piperidin-4-yl)oxy)-2,3-dihydro-1H-inden-1-one]
23 | 0.077 µM | Cc1c(Cl)nc(CO)nc1N1CCC(Oc2ccc3c(c2)C(=O)OC3)CC1 [Example 24, 6-((1-(6-chloro-2-(hydroxymethyl)-5-methylpyrimidin-4-yl)piperidin-4-yl)oxy)isobenzofuran-1(3H)-one]
24 | 0.067 µM | Cc1c(Cl)ncnc1N1CCC(Oc2ccc3c(cnn3C)c2)CC1 [Example 60, 5-((1-(6-chloro-5-methylpyrimidin-4-yl)piperidin-4-yl)oxy)-1-methyl-1H-indazole]
25 | 0.062 µM | COc1ccc(OC2CCN(c3nc(C(N)=O)nc(Br)c3C)CC2)cn1 [Example 225A, 4-bromo-6-(4-((6-methoxypyridin-3-yl)oxy)piperidin-1-yl)-5-methylpyrimidine-2-carboxamide]
26 | 0.057 µM | Cc1c(Cl)nc(CO)nc1N1CCC(Oc2ccc3c(c2)C(=O)CCO3)CC1 [Example 21, 6-((1-(6-chloro-2-(hydroxymethyl)-5-methylpyrimidin-4-yl)piperidin-4-yl)oxy)chroman-4-one]
27 | 0.053 µM | Cc1cc(C(=O)NCc2ccncc2)nnc1N1CCC(Oc2ccccc2)CC1 [Example 114, 5-methyl-6-(4-phenoxypiperidin-1-yl)-N-(pyridin-4-ylmethyl)pyridazine-3-carboxamide]
28 | 0.035 µM | COc1ccc(OC2CCN(c3nnc(C(=O)NCc4ccccc4)cc3C)CC2)cn1 [Example 193, N-benzyl-6-{4-[(6-methoxypyridin-3-yl)oxy]piperidin-1-yl}-5-methylpyridazine-3-carboxamide]
